Assay results from US9938273B2 (Plexxikon Inc., priority 2015, dated 2018).

Legend:
[1] = biological target: T1, FLT3-D835Y (Homo sapiens, UniProt P36888, D835Y); test: AlphaScreen kinase assay with recombinant enzyme, FLT3-D835Y; type: biochemical; conditions: 8pt, GMean
T1 construct: purchased Invitrogen PV3967
T1 sequence (P36888 27-993 D835Y): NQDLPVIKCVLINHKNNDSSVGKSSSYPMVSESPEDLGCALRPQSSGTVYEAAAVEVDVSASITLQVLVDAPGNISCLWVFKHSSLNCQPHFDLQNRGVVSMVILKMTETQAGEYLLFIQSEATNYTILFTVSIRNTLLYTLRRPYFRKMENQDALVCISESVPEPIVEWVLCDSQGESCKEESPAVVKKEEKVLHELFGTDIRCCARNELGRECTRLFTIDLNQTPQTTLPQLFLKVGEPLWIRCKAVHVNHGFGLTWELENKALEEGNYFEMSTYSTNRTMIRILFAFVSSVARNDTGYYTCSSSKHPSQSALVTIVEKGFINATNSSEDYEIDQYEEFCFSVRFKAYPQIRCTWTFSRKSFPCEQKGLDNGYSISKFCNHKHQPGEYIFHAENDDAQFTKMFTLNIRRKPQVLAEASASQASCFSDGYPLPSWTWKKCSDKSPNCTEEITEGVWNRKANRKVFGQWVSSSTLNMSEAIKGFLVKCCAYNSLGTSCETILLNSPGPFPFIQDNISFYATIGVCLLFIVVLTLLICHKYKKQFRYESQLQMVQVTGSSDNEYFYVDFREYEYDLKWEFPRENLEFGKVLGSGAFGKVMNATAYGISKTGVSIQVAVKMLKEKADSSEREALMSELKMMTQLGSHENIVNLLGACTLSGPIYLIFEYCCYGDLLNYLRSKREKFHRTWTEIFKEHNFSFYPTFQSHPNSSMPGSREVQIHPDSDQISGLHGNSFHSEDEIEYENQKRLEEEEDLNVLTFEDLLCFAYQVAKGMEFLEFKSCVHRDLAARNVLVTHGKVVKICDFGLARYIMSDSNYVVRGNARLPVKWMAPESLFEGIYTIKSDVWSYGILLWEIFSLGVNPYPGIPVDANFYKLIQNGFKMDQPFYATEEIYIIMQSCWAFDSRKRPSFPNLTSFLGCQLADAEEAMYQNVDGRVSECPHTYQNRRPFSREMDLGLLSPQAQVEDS
Method in brief: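 Compounds in DMSO added to enzyme plus biotin-poly(Glu4-Tyr) (30 nM) in assay buffer, then ATP added. Streptavidin donor beads added (20 min, RT), then PY20 acceptor beads (60 min, RT), both at 10 μg/mL final in stop/detection buffer. IC50 conditions: 10 μM FLT3-D835Y/ITD, 100 μM c-KIT.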

[2] = test system: MOLM-14 F691L cells, FLT3 ITD and FLT3 F691L; test: Cell proliferation assay (CellTiter-Glo), MOLM-14 F691L; type: cell-based; conditions: Homo sapiens, 72 h, 3d-Growth, GMean
Excerpt: The FLT3 inhibitors may be assessed using the MOLM-14, Acute Myeloid Leukemia cell line that endogenously expresses FLT3 ITD or derivatives of the human FLT3 AML cell line which acquired the D835Y (activation loop) of F691L (gatekeeper) mutation after selection in escalating doses of the FLT3 Inhibitor AC220. FLT3 inhibitors may also be assessed using cells that are engineered to express mutant FLT3. For engineered cells, murine Ba/F3 cells were transfected with full-length FLT3 ITD/D835Y mutations. The parental BA/F3 cells are dependent upon Interleukin-3 (IL-3) for survival, and introduction of the FLT3 constructs rendered these cells dependent upon FLT3 kinase activity when cultured in the absences of IL-3. Engineered BA/F3 cell growth assays can be performed in either the […] of IL-3, to assess the compound inhibition of FLT3 or to detect the presence of off-target activity, respectively. Inhibitors of FLT3 kinase activity reduce or eliminate the FLT3 oncogenic signaling, resulting in reduced cell proliferation. This inhibition is measured as a function of compound concentration to asses IC50 values.
Cell lines used in proliferation assays are as follows in Table 3:
Cells were seeded at 1×10^4 cells per well of a 96 well cell culture plate in 50 μl of cell culture medium. Compounds were dissolved in DMSO, typically at a concentration of 0.5 mM and were serially diluted 1:3 for a total of eight points and added to the cells to final concentrations of […], 0.0041, 0.0014 and 0.00046 μM in 100 μl cell culture medium (final concentration 0.2% DMSO). […] The cells were incubated at 37° C., 5% CO2 for three days. CellTiter-Glo Buffer (Promega Cell Viability Assay catalog #G7573) and substrate were equilibrated to room temperature, and enzyme/substrate Recombinant Firefly Luciferase/Beetle Luciferin was reconstituted. The cell plates were equilibrated to room temperature for 30 minutes, then lysed by addition of an equivalent volume of the Celltiter-Glo Reagent. The plate was mixed for 10 minutes on a plate shaker to lyse the cells. The plates were read on a Tecan M1000 using Luminescence protocol modified to read 0.1 s per well. The luminescence reading assesses the ATP content, which correlates directly with cell number such that the reading as a function of compound concentration was used to determine the IC50 value.

SMILES | IC50 [1] [µM] | IC50 [2] [µM]
N#CC1(F)CCN(C(=O)c2cccc(-c3cnc4[nH]c(-c5ccccc5)cc4c3)n2)C1 (stereo not drawn) [Compound P-0115, 3-fluoro-1-[6-(2-phenyl-1H-pyrrolo[2,3-b]pyridin-5-yl)pyridine-2-carbonyl]pyrrolidine-3-carbonitrile] | 0.0001 to 10 | 0.0001 to 10
CS(=O)(=O)N1CCC(NS(=O)(=O)c2cccc(-c3cnc4[nH]c(-c5ccccc5)cc4c3)n2)C1 (stereo not drawn) [Compound P-0107, N-(1-methylsulfonylpyrrolidin-3-yl)-6-(2-phenyl-1H-pyrrolo[2,3-b]pyridin-5-yl)pyridine-2-sulfonamide] | 0.0001 to 10 | 
N#CCCNC(=O)c1cccc(-c2cnc3[nH]c(-c4ccccc4)c(Cl)c3c2)n1 [Compound P-0125, 6-(3-chloro-2-phenyl-1H-pyrrolo[2,3-b]pyridin-5-yl)-N-(2-cyanoethyl)pyridine-2-carboxamide] | 0.0001 to 10 | 
C#Cc1cc2cc(-c3cccc(C(=O)NC(C)(C)C#N)n3)cnc2[nH]1 [Compound P-0175, N-(1-cyano-1-methyl-ethyl)-6-(2-ethynyl-1H-pyrrolo[2,3-b]pyridin-5-yl)pyridine-2-carboxamide] | 0.0001 to 10 | 
CNC(=O)C1CCN(C(=O)c2cccc(-c3cnc4[nH]c(-c5ccccc5)cc4c3)n2)C1 (stereo not drawn) [Compound P-0096, N-methyl-1-[6-(2-phenyl-1H-pyrrolo[2,3-b]pyridin-5-yl)pyridine-2-carbonyl]pyrrolidine-3-carboxamide] | 0.0001 to 10 | 
N#CC1CCN(C(=O)c2cccc(-c3cnc4[nH]c(-c5ccccc5)cc4c3)n2)C1 (stereo not drawn) [Compound P-0105, 1-[6-(2-phenyl-1H-pyrrolo[2,3-b]pyridin-5-yl)pyridine-2-carbonyl]pyrrolidine-3-carbonitrile] | 0.0001 to 10 | 
N#CC1CCN(C(=O)c2cccc(-c3cnc4[nH]c(C5=CCOCC5)c(Cl)c4c3)n2)C1 (stereo not drawn) [Compound P-0142, 1-[6-[3-chloro-2-(3,6-dihydro-2H-pyran-4-yl)-1H-pyrrolo[2,3-b]pyridin-5-yl]pyridine-2-carbonyl]pyrrolidine-3-carbonitrile] | 0.0001 to 10 | 
COC1CCN(C(=O)c2cccc(-c3cnc4[nH]c(-c5ccccc5)cc4c3)n2)C1 (stereo not drawn) [Compound P-0095, (3-methoxypyrrolidin-1-yl)-[6-(2-phenyl-1H-pyrrolo[2,3-b]pyridin-5-yl)-2-pyridyl]methanone] | 0.0001 to 10 | 
Cc1cc(C#N)ccc1-c1cc2cc(-c3cccc(C(=O)N4CCC(C#N)C4)n3)cnc2[nH]1 (stereo not drawn) [Compound P-0130, 1-[6-[2-(4-cyano-2-methyl-phenyl)-1H-pyrrolo[2,3-b]pyridin-5-yl]pyridine-2-carbonyl]pyrrolidine-3-carbonitrile] | 0.0001 to 10 | 
CC(C)(C)OC(=O)N1CC=C(c2cc3cc(-c4cccc(C(=O)N5CCC(C#N)C5)n4)cnc3[nH]2)C1 (stereo not drawn) [Compound P-0135, tert-butyl 3-[5-[6-(3-cyanopyrrolidine-1-carbonyl)-2-pyridyl]-1H-pyrrolo[2,3-b]pyridin-2-yl]-2,5-dihydropyrrole-1-carboxylate] | 0.0001 to 10 | 

Other lines, results leading:

IC50 [1] [µM] | IC50 [2] [µM] | SMILES
0.0001 to 10 | 0.0001 to 10 | CC(C)(C#N)NC(=O)c1cccc(-c2cnc3[nH]c(-c4cnn(C(F)F)c4)cc3c2)n1 [Compound P-0164, N-(2-cyanopropan-2-yl)-6-(2-(1-(difluoromethyl)-1H-pyrazol-4-yl)-1H-pyrrolo[2,3-b]pyridin-5-yl)picolinamide]
0.0001 to 10 | 0.0001 to 10 | CC(C)(C#N)NC(=O)c1cccc(-c2cnc3[nH]c(-c4cnn(C5CCOC5)c4)cc3c2)n1 (stereo not drawn) [Compound P-0173, N-(1-cyano-1-methyl-ethyl)-6-[2-(1-tetrahydrofuran-3-ylpyrazol-4-yl)-1H-pyrrolo[2,3-b]pyridin-5-yl]pyridine-2-carboxamide]
0.0001 to 10 | 0.0001 to 10 | CC(C)(C#N)NC(=O)c1cccc(-c2cnc3[nH]c(-c4cnn(Cc5ccccc5)c4)cc3c2)n1 [Compound P-0171, 6-[2-(1-benzylpyrazol-4-yl)-1H-pyrrolo[2,3-b]pyridin-5-yl]-N-(1-cyano-1-methyl-ethyl)pyridine-2-carboxamide]
0.0001 to 10 | 0.0001 to 10 | CC(C)(O)CNC(=O)c1cccc(-c2cnc3[nH]c(-c4ccccc4)cc3c2)n1 [Compound P-0150, N-(2-hydroxy-2-methyl-propyl)-6-(2-phenyl-1H-pyrrolo[2,3-b]pyridin-5-yl)pyridine-2-carboxamide]
0.0001 to 10 | 0.0001 to 10 | CC(C)(C#N)NC(=O)c1cccc(-c2cnc3[nH]c(-c4cnn(CCC#N)c4)cc3c2)n1 [Compound P-0170, 6-[2-[1-(2-cyanoethyl)pyrazol-4-yl]-1H-pyrrolo[2,3-b]pyridin-5-yl]-N-(1-cyano-1-methyl-ethyl)pyridine-2-carboxamide]
0.0001 to 10 | 0.0001 to 10 | CC(C)(C#N)CNC(=O)c1cccc(-c2cnc3[nH]c(C4=CCN(C(=O)C5CC5)C4)cc3c2)n1 [Compound P-0141, N-(2-cyano-2-methyl-propyl)-6-[2-[1-(cyclopropanecarbonyl)-2,5-dihydropyrrol-3-yl]-1H-pyrrolo[2,3-b]pyridin-5-yl]pyridine-2-carboxamide]
0.0001 to 10 | 0.0001 to 10 | CC(C)(C#N)CNC(=O)c1cccc(-c2cnc3[nH]c(C4=CCC(F)(F)CC4)cc3c2)n1 [Compound P-0157, N-(2-cyano-2-methyl-propyl)-6-[2-(4,4-difluorocyclohexen-1-yl)-1H-pyrrolo[2,3-b]pyridin-5-yl]pyridine-2-carboxamide]
0.0001 to 10 | 0.0001 to 10 | CN[C@@H]1CCN(C(=O)c2ccc(-c3cnc4[nH]c(-c5ccccc5)cc4c3)s2)C1 [Compound P-0106, [(3R)-3-(methylamino)pyrrolidin-1-yl]-[5-(2-phenyl-1H-pyrrolo[2,3-b]pyridin-5-yl)-2-thienyl]methanone]
0.0001 to 10 | 0.0001 to 10 | CC(C)(C#N)NC(=O)c1cccc(-c2cnc3[nH]c(-c4ccccc4)cc3c2)n1 [Compound P-0118, N-(1-cyano-1-methyl-ethyl)-6-(2-phenyl-1H-pyrrolo[2,3-b]pyridin-5-yl)pyridine-2-carboxamide]
0.0001 to 10 | 0.0001 to 10 | N#CCCNC(=O)c1cccc(-c2cnc3[nH]c(-c4ccccc4)c(Br)c3c2)n1 [Compound P-0147, 6-(3-bromo-2-phenyl-1H-pyrrolo[2,3-b]pyridin-5-yl)-N-(2-cyanoethyl)pyridine-2-carboxamide]
0.0001 to 10 | 0.0001 to 10 | Cc1nn(C(C)C)cc1-c1cc2cc(-c3cccc(C(=O)NC(C)(C)C#N)n3)cnc2[nH]1 [Compound P-0178, N-(1-cyano-1-methyl-ethyl)-6-[2-(1-isopropyl-3-methyl-pyrazol-4-yl)-1H-pyrrolo[2,3-b]pyridin-5-yl]pyridine-2-carboxamide]
